From patent publication US11208412B2 (DAEGU-GYEONGBUK MEDICAL INNOVATION FOUNDATION, priority 2017, dated 2021)
Read-outs that look alike come from different tables or passages of the source.

Tests used:
Assay in all cases: Kinase selectivity, DiscoverX scanMAX Kinase assay panel (% control)
Type in all cases: binding
[1] = target: T1, kinases of the scanMAX Kinase assay panel (Homo sapiens, UniProt Q9UQM7); settings: CAMK2A; 1 uM
T1 construct: purchased DiscoverX Co. (contract measurement) scanMAX Kinase assay panel
Summary of the method: (§1)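 Compounds were tested at 1 uM (in DMSO) against each panel kinase. % control was calculated as (compound − positive control)/(negative control − positive control)×100, where the positive control gives 0% and DMSO gives 100%. Activity toward a kinase was called at % control <35%.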

[2] = target: T2, kinases of the scanMAX Kinase assay panel (Homo sapiens, UniProt P51812); settings: 1 uM in DMSO
T2 construct: purchased DiscoverX Co. (contract measurement) scanMAX Kinase assay panel
T2 sequence (P51812 whole entry): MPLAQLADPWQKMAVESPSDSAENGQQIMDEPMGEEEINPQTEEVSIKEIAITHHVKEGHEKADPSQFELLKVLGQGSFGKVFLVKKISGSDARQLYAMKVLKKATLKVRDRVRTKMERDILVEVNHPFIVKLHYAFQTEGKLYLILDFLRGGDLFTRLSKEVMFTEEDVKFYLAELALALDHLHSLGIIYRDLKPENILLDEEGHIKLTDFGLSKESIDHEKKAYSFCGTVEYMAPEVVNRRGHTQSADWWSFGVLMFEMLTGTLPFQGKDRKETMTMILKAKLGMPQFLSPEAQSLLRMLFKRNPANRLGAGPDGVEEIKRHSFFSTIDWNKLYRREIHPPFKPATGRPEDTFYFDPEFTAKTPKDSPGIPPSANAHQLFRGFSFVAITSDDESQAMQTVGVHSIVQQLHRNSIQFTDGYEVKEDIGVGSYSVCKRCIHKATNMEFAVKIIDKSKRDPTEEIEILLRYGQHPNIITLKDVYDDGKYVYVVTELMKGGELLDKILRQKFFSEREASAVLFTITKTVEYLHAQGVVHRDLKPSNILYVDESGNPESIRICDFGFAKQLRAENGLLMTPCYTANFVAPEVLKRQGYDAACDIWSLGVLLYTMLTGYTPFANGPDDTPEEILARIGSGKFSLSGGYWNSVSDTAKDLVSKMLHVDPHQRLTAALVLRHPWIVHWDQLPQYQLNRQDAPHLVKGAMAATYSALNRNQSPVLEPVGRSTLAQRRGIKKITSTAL
Summary of the method: as §1

[3] = target: T3, kinases of the scanMAX Kinase assay panel (Homo sapiens, UniProt Q8TDX7); settings: NEK7; 1 uM
T3 construct: purchased DiscoverX Co. (contract measurement) scanMAX Kinase assay panel
T3 sequence (Q8TDX7 whole entry): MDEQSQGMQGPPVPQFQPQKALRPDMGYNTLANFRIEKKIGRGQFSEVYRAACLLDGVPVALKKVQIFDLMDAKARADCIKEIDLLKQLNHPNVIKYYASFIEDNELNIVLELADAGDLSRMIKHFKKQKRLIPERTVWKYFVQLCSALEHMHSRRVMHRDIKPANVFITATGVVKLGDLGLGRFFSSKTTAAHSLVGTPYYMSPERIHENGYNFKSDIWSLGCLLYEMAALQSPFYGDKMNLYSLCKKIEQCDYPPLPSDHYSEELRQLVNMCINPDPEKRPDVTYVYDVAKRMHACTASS
Summary of the method: as §1

[4] = target: T4, kinases of the scanMAX Kinase assay panel (Homo sapiens, UniProt P20794); settings: MAK; 1 uM
T4 construct: purchased DiscoverX Co. (contract measurement) scanMAX Kinase assay panel
T4 sequence (P20794 1-623): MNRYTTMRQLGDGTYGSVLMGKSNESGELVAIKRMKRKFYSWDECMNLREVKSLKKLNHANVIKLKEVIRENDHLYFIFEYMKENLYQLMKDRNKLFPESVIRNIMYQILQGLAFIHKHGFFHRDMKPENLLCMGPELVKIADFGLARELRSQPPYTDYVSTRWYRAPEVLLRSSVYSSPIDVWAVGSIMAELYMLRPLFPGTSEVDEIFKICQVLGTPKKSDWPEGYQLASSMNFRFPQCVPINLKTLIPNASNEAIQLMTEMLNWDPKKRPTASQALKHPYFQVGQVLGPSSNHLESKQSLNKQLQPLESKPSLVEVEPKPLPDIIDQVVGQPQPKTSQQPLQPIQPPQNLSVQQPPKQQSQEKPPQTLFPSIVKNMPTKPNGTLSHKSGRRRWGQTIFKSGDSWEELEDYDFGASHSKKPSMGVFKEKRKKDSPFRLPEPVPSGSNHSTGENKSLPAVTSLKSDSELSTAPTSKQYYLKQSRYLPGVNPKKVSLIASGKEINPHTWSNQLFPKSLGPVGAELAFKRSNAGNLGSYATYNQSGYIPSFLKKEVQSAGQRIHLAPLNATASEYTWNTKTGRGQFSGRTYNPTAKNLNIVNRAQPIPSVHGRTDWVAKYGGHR
Summary of the method: as §1

[5] = target: T5, kinases of the scanMAX Kinase assay panel (Homo sapiens, UniProt O60674); settings: JAK2(JH1domain-catalytic); 1 uM
T5 construct: purchased DiscoverX Co. (contract measurement) scanMAX Kinase assay panel
Summary of the method: as §1

[6] = target: T6, kinases of the scanMAX Kinase assay panel (Homo sapiens, UniProt Q92918); settings: HPK1; 1 uM
T6 construct: purchased DiscoverX Co. (contract measurement) scanMAX Kinase assay panel
T6 sequence (Q92918 whole entry): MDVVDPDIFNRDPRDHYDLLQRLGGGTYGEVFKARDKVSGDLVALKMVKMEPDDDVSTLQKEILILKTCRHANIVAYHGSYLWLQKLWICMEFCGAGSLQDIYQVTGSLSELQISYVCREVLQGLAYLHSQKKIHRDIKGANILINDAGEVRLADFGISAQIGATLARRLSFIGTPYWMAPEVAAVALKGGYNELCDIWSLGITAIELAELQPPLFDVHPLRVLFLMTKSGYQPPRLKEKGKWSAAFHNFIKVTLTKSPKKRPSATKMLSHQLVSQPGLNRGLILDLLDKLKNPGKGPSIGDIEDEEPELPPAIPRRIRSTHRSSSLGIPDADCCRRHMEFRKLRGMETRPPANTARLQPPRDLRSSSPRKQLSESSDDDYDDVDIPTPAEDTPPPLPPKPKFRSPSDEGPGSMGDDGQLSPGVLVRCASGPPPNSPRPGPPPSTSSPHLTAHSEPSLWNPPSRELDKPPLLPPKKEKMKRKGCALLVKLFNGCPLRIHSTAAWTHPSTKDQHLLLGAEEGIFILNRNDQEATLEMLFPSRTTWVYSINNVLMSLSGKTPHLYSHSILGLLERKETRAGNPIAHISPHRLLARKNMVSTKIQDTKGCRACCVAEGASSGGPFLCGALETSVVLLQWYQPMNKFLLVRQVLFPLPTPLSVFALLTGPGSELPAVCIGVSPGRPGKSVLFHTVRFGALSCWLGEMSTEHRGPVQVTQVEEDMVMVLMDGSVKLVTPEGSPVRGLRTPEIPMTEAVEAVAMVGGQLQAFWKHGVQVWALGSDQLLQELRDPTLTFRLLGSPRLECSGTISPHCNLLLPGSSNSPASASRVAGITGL
Summary of the method: as §1

[7] = target: T7, kinases of the scanMAX Kinase assay panel (Homo sapiens, UniProt Q12852); settings: DLK; 1 uM
T7 construct: purchased DiscoverX Co. (contract measurement) scanMAX Kinase assay panel
T7 sequence (Q12852 1-859): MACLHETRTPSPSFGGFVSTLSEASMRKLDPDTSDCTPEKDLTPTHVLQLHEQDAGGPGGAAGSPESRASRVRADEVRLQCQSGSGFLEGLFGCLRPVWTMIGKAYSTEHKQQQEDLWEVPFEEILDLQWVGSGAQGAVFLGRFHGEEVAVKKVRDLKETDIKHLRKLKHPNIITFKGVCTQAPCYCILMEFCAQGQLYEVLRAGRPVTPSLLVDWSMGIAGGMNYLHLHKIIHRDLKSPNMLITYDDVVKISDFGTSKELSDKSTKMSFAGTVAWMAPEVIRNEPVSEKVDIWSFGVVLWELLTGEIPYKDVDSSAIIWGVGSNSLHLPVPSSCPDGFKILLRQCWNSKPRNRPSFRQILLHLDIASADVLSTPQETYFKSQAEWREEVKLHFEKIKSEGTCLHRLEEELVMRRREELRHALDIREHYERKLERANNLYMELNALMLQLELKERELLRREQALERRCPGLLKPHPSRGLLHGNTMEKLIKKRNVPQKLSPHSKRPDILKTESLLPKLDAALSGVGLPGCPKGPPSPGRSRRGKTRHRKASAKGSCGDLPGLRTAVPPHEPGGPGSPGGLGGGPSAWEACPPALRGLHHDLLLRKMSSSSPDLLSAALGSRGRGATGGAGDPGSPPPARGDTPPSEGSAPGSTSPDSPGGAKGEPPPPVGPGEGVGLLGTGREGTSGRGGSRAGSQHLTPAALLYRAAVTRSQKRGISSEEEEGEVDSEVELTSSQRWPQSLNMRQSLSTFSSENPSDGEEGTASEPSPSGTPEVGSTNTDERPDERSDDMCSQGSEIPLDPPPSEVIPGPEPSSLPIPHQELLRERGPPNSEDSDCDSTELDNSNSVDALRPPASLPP
Summary of the method: as §1

[8] = target: T8, kinases of the scanMAX Kinase assay panel (Homo sapiens, UniProt P00533, L858R); settings: EGFR(L858R); 1 uM
T8 construct: purchased DiscoverX Co. (contract measurement) scanMAX Kinase assay panel
T8 sequence (P00533 25-1210 L858R): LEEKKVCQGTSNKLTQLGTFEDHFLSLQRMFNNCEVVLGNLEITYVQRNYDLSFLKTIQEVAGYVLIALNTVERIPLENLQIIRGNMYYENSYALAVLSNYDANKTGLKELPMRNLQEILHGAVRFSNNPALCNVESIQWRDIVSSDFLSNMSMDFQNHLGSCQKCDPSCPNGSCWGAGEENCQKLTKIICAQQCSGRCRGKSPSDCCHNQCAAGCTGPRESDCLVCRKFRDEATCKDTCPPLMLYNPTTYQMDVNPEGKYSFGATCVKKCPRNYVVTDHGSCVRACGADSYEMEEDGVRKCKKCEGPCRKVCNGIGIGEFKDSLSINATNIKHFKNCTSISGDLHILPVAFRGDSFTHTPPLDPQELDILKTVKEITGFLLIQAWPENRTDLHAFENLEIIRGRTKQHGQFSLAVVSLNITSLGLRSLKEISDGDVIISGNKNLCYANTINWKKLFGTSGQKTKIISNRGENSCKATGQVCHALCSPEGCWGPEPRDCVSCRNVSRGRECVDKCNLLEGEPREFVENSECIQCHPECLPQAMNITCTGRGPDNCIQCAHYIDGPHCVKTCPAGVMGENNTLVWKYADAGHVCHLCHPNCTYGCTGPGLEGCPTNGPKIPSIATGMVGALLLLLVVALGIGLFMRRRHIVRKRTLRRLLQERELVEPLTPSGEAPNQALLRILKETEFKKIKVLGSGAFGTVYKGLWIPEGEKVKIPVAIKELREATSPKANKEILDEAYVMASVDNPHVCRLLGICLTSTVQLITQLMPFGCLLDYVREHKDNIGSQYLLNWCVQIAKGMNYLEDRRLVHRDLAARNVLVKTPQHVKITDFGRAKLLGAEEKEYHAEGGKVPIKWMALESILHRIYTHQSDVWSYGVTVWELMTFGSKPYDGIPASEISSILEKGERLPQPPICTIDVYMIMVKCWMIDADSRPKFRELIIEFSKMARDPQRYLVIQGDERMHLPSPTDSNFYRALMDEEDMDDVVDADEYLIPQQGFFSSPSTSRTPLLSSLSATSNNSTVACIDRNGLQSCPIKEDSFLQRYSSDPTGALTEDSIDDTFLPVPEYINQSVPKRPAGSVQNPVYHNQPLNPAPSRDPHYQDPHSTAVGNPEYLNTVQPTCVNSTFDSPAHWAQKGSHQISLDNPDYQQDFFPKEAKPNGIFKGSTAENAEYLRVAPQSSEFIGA
Summary of the method: as §1

[9] = target: T9, kinases of the scanMAX Kinase assay panel (Homo sapiens, UniProt P22455); settings: FGFR4; 1 uM
T9 construct: purchased DiscoverX Co. (contract measurement) scanMAX Kinase assay panel
Summary of the method: as §1

[10] = target: T10, kinases of the scanMAX Kinase assay panel (Homo sapiens, UniProt P49137); settings: MAPKAPK2; 1 uM
T10 construct: purchased DiscoverX Co. (contract measurement) scanMAX Kinase assay panel
T10 sequence (P49137 whole entry): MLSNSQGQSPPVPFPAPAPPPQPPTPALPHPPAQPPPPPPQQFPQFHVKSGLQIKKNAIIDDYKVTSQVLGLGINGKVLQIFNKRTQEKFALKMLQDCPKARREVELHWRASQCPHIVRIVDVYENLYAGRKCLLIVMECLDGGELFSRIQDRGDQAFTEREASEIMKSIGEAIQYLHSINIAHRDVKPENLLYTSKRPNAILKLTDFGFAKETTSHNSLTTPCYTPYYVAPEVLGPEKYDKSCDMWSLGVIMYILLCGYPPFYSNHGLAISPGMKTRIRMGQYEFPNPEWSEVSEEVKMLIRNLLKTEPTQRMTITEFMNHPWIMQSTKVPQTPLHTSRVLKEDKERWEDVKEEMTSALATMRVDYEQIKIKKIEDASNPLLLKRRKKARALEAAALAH
Summary of the method: as §1

[11] = target: T11, kinases of the scanMAX Kinase assay panel (Homo sapiens, UniProt Q7KZI7); settings: MARK2; 1 uM
T11 construct: purchased DiscoverX Co. (contract measurement) scanMAX Kinase assay panel
T11 sequence (Q7KZI7 whole entry): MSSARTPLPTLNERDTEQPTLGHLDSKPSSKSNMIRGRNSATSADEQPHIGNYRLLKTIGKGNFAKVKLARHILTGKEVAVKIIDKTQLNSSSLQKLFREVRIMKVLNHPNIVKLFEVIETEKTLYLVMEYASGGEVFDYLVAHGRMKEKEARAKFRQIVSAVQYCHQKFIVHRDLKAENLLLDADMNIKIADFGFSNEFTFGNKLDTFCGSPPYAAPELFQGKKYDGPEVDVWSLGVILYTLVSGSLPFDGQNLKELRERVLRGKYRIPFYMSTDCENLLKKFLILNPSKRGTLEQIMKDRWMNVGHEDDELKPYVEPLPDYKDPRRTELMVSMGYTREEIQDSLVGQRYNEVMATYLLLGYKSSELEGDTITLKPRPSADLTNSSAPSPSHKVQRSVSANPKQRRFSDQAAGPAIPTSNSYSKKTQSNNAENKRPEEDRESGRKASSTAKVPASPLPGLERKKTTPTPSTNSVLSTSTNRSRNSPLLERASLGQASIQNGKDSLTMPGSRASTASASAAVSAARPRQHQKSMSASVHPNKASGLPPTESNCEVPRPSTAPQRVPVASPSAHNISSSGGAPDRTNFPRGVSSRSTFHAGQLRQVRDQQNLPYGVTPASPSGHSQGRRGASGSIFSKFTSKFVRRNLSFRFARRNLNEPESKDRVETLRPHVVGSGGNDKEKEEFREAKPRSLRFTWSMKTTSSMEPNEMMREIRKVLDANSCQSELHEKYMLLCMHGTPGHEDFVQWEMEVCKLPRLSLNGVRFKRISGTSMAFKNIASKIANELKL
Summary of the method: as §1

[12] = target: T12, kinases of the scanMAX Kinase assay panel (Homo sapiens, UniProt P08631); settings: HCK; 1 uM
T12 construct: purchased DiscoverX Co. (contract measurement) scanMAX Kinase assay panel
Summary of the method: as §1

[13] = target: T13, kinases of the scanMAX Kinase assay panel (Homo sapiens, UniProt Q9H422); settings: HIPK3; 1 uM
T13 construct: purchased DiscoverX Co. (contract measurement) scanMAX Kinase assay panel
Summary of the method: as §1

[14] = target: T14, kinases of the scanMAX Kinase assay panel (Homo sapiens, UniProt Q8IY84); settings: NIM1; 1 uM
T14 construct: purchased DiscoverX Co. (contract measurement) scanMAX Kinase assay panel
T14 sequence (Q8IY84 whole entry): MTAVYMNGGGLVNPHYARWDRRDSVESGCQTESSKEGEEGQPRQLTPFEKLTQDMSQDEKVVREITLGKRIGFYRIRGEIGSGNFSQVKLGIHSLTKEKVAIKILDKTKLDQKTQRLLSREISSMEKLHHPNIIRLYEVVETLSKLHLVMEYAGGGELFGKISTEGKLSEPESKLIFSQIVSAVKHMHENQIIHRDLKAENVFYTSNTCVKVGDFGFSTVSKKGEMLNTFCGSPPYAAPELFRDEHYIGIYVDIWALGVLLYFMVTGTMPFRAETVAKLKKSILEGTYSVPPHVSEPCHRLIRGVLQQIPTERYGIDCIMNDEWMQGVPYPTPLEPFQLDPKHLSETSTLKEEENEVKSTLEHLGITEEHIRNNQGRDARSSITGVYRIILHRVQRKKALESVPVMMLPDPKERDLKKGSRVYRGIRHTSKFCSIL
Summary of the method: as §1

[15] = kinase RSK2(Kin.Dom.1-N-terminal), read-out: % control, RSK2(Kin.Dom.1-N-terminal)
[16] = kinase RSK2(Kin.Dom.2-C-terminal), read-out: % control, RSK2(Kin.Dom.2-C-terminal)

SMILES	remaining binding at 1 µM [1] [%]	remaining binding at 1 µM [2, 15] [%]	remaining binding at 1 µM [2, 16] [%]	remaining binding at 1 µM [3] [%]	remaining binding at 1 µM [4] [%]	remaining binding at 1 µM [5] [%]	remaining binding at 1 µM [6] [%]	remaining binding at 1 µM [7] [%]	remaining binding at 1 µM [8] [%]	remaining binding at 1 µM [9] [%]	remaining binding at 1 µM [10] [%]	remaining binding at 1 µM [11] [%]	remaining binding at 1 µM [12] [%]	remaining binding at 1 µM [13] [%]	remaining binding at 1 µM [14] [%]
CCNc1nc(Nc2ccc(C(=O)N3CCC(N4CCOCC4)CC3)cc2OC)nc2[nH]cc(C(F)(F)F)c12 [Example 104, (4-((4-(ethylamino)-5-(trifluoromethyl)-7H-pyrrolo[2,3-d]pyrimidine-2-yl)amino)-3-methoxyphenyl)(4-morpholinopiperidine-1-yl)methanone]	39	100	71	94	100	100	100	100	89	38	24	81	100	16	100
CNc1nc(Nc2ccc(C(=O)N3CCOCC3)cc2OC)nc2[nH]cc(C#N)c12 [Example 1, 2-((2-methoxy-4-(morpholine-4-carbonyl)phenyl)amino)-4-(methylamino)-7H-pyrrolo[2,3-d]pyrimidine-5-carbonitrile]	60	68	66	100	95	83	79	74	96	89	4.6	100	95	64	77
CC1(Nc2nc(Nc3cnn([C@H]4CCN(C5COC5)C[C@@H]4F)c3Cl)nc3[nH]cc(C#N)c23)CC1 [Example 52, 2-((5-chloro-1-((3S,4S)-3-fluoro-1-(oxetane-3-yl)piperidine-4-yl)-1H-pyrazole-4-yl)amino)((1-methylcyclopropyl)amino)-7H-pyrrolo[2,3-d]pyrimidine-5-carbonitrile]	28	0.55	100	97	71	0	4.3	21	41	31	70	9.5	11	6.2	100
